Patent publication US9988379B2, “GPR40 receptor agonist, methods of preparing the same, and pharmaceutical compositions containing the same as an active agent” (LG CHEM, LTD., priority 2012, dated 2018)

Molecular target: T1, human GPR40 (Homo sapiens, UniProt O14842)
T1 construct: expressed in transfected cells; host or cells: CHO-K1
Assay: Induction of Ca2+ (calcium flux assay) using human GPR40 expression cell line
Type: cell-based
Details: read-out: EC0.5
Procedure, shortened: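 Read-out is intracellular Ca2+ flux on FlexStation after test compounds (DMSO stocks diluted 200-fold in assay buffer) were added to dye-loaded human GPR40/CHO-K1 cells. Cells had been cultured 24 h, then incubated 1 h at 37° C with Calcium 5 dye, HBSS-HEPES pH 7.4; EC0.5 from concentration plot.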

T1 sequence (O14842 whole entry): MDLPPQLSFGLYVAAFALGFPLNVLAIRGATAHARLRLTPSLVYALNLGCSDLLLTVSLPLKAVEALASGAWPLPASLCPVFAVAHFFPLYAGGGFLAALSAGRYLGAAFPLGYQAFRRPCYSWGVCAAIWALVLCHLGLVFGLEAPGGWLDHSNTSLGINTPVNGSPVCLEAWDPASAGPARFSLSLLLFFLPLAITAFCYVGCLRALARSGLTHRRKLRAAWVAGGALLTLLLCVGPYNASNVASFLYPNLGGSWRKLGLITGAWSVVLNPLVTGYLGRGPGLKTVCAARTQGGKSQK

EC50 | SMILES
1 to 50 nM | CC#C[C@@H](CC(=O)O)c1ccc(OCc2ccc3c(cnn3Cc3ccccn3)c2)cc1 [Example 141, (S)-3-[4-(1-pyridine-2-ylmethyl-1H-indazol-5-ylmethoxy)-phenyl]-hex-4-ynoic acid]
≥ 500 nM | O=C(O)CC1CCOc2cc(OCc3ccc4c(cnn4Cc4ccccn4)c3)ccc21 (centres unmarked) [Example 142, [7-(1-pyridine-2-ylmethyl-1H-indazol-5-ylmethoxy)-chroman-4-yl]-acetic acid]
1 to 50 nM | CC#C[C@@H](CC(=O)O)c1ccc(OCc2cnc3c(ccn3Cc3ccccc3)c2)cc1 [Example 143, (S)-3-[4-(1-benzyl-1H-pyrrolo[2,3-b]pyridin-5-ylmethoxy)-phenyl]-hex-4-ynoic acid]
1 to 50 nM | CC#C[C@@H](CC(=O)O)c1ccc(OCc2cnc3c(ccn3CC(C)C)c2)cc1 [Example 144, (S)-3-[4-(1-isobutyl-1H-pyrrolo[2,3-b]pyridin-5-ylmethoxy)-phenyl]-hex-4-ynoic acid]
40 nM | Cc1c(COc2ccc3c(c2)OCCC3CC(=O)O)ccc2ccn(Cc3ccccc3)c12 (centres unmarked) [Example 145, [7-(1-benzyl-7-methyl-1H-indol-6-ylmethoxy)-chroman-4-yl]-acetic acid]
1 to 50 nM | CC#C[C@@H](CC(=O)O)c1ccc(OCc2ccc3c(cnn3Cc3cccnc3)c2)cc1 [Example 147, (S)-3-[4-(1-pyridin-3-ylmethyl-1H-indazol-5-ylmethoxy)-phenyl]-hex-4-ynoic acid]
≥ 500 nM | O=C(O)CC1CCOc2cc(OCc3ccc4c(cnn4Cc4cccnc4)c3)ccc21 (centres unmarked) [Example 148, [7-(1-pyridin-3-ylmethyl-1H-indazol-5-ylmethoxy)-chroman-4-yl]-acetic acid]
≥ 500 nM | CCOCCn1ncc2cc(COc3ccc4c(c3)OCCC4CC(=O)O)ccc21 (centres unmarked) [Example 149, {7-[1-(2-ethoxy-ethyl)-1H-indazol-5-ylmethoxy]-chroman-4-yl}-acetic acid]
3 nM | CC#C[C@@H](CC(=O)O)c1ccc(OCc2cc3c(cnn3CC(C)C)cc2F)cc1 [Example 150, (S)-3-[4-(5-fluoro-1-isobutyl-1H-indazol-6-ylmethoxy)-phenyl]-hex-4-ynoic acid]
1 to 50 nM | CC#C[C@@H](CC(=O)O)c1ccc(OCc2ccc3c(cnn3CC3CCCO3)c2)cc1 (stereo partly drawn) [Example 151, (S)-3-{4-[1-(tetrahydrofuran-2-ylmethyl)-1H-indazol-5-ylmethoxy]-phenyl}-hex-4-ynoic acid]
≥ 500 nM | CC#C[C@@H](CC(=O)O)c1ccc(OCc2ccc3c(cnn3CCCS(C)(=O)=O)c2)cc1 [Example 152, (S)-3-{4-[1-(3-methanesulfonyl-propyl)-1H-indazol-5-ylmethoxy]-phenyl}-hex-4-ynoic acid]
1 to 50 nM | CC#C[C@@H](CC(=O)O)c1ccc(OCc2ccc3c(cnn3CC3CCOC3)c2)cc1 (stereo partly drawn) [Example 153, (S)-3-{4-[1-(tetrahydrofuran-3-ylmethyl)-1H-indazol-5-ylmethoxy]-phenyl}-hex-4-ynoic acid]
≥ 500 nM | CC#C[C@@H](CC(=O)O)c1ccc(OCc2ccc3nn(CC4CCOC4)cc3c2)cc1 (stereo partly drawn) [Example 154, (S)-3-{4-[2-(tetrahydrofuran-3-ylmethyl)-2H-indazol-5-ylmethoxy]-phenyl}-hex-4-ynoic acid]
50 to 500 nM | COC(CC(=O)O)c1ccc(OCc2ccc3c(cnn3Cc3ccccc3)c2)cc1 (centres unmarked) [Example 155, 3-[4-(1-benzyl-1H-indazol-5-ylmethoxy)-phenyl]-3-methoxy-propanoic acid]
20 nM | CC#C[C@@H](CC(=O)O)c1ccc(OCc2cnc3c(cnn3CC(C)C)c2)cc1 [Example 156, (S)-3-[4-(1-isobutyl-1H-pyrazolo[3,4-b]pyridin-5-ylmethoxy)-phenyl]-hex-4-ynoic acid]
1 to 50 nM | CC#C[C@@H](CC(=O)O)c1ccc(OCc2ccc3c(cnn3CCOCC)c2)cc1 [Example 157, (S)-3-{4-[1-(2-ethoxy-ethyl)-1H-indazol-5-ylmethoxy]-phenyl}-hex-4-ynoic acid]
50 nM | CC(CC(=O)O)c1ccc(OCc2ccc3c(cnn3Cc3ccccc3)c2)cc1 (centres unmarked) [Example 158, 3-[4-(1-benzyl-1H-indazol-5-ylmethoxy)-phenyl]-butyric acid]
100 nM | CCC(CC(=O)O)c1ccc(OCc2ccc3c(cnn3Cc3ccccc3)c2)cc1 (centres unmarked) [Example 159, 3-[4-(1-benzyl-1H-indazol-5-ylmethoxy)-phenyl]-pentanoic acid]
50 to 500 nM | CC#C[C@@H](CC(=O)O)c1ccc(OCc2ccc3nn(CCOCC)cc3c2)cc1 [Example 160, (S)-3-{4-[2-(2-ethoxy-ethyl)-2H-indazol-5-ylmethoxy]-phenyl}-hex-4-ynoic acid]
5 nM | CC#C[C@@H](CC(=O)O)c1ccc(OCc2ccc3c(c2)n(C)c(=O)n3Cc2ccccc2)cc1 [Example 161, (S)-3-[4-(1-benzyl-3-methyl-2-oxo-2,3-dihydro-1H-benzoimidazol-5-ylmethoxy)-phenyl]-hex-4-ynoic acid]
20 nM | N#CC(CC(=O)O)c1ccc(OCc2ccc3c(cnn3Cc3ccccc3)c2)cc1 (centres unmarked) [Example 162, 3-[4-(1-benzyl-1H-indazol-5-ylmethoxy)-phenyl]-3-cyano-propanoic acid]

EC50 | SMILES
1 to 50 nM | CC#C[C@@H](CC(=O)O)c1ccc(OCc2ccc3c(cnn3CC3CCCC3)c2)cc1 [Example 163, (S)-3-[4-(1-cyclopentylmethyl-1H-indazol-5-ylmethoxy)-phenyl]-hex-4-ynoic acid]
1 to 50 nM | CC#C[C@@H](CC(=O)O)c1ccc(OCc2ccc3c(cnn3C3CCCC3)c2)cc1 [Example 164, (S)-3-[4-(1-cyclopentyl-1H-indazol-5-ylmethoxy)-phenyl]-hex-4-ynoic acid]
1 to 50 nM | CC#C[C@@H](CC(=O)O)c1ccc(OCc2ccc3c(cnn3CC3CC3)c2)cc1 [Example 165, (S)-3-[4-(1-cyclopropylmethyl-1H-indazol-5-ylmethoxy)-phenyl]-hex-4-ynoic acid]
50 to 500 nM | CC#C[C@@H](CC(=O)O)c1ccc(OCc2ccc3nnn(CC(C)C)c3c2)cc1 [Example 166, (S)-3-[4-(3-isobutyl-3H-benzotriazol-5-ylmethoxy)-phenyl]-hex-4-ynoic acid]
60 nM | O=C(O)C1CC1c1ccc(OCc2ccc3cnn(Cc4ccccc4)c3c2)cc1 (centres unmarked) [Example 167, 2-[4-(1-benzyl-1H-indazol-6-ylmethoxy)-phenyl]-cyclopropane carboxylic acid]
1 to 50 nM | CC#C[C@@H](CC(=O)O)c1ccc(OCc2cc(C)c3c(cnn3C(C)C)c2)cc1 [Example 168, (S)-3-[4-(1-isopropyl-7-methyl-1H-indazol-5-ylmethoxy)-phenyl]-hex-4-ynoic acid]
1 to 50 nM | CC#C[C@@H](CC(=O)O)c1ccc(OCc2cc(C)c3c(cnn3CC3CCCC3)c2)cc1 [Example 169, (S)-3-[4-(1-cyclopentylmethyl-7-methyl-1H-indazol-5-ylmethoxy)-phenyl]-hex-4-ynoic acid]
1 to 50 nM | CC#C[C@@H](CC(=O)O)c1ccc(OCc2ccc3c(c2)c(C)nn3CC(C)C)cc1 [Example 170, (S)-3-[4-(1-isobutyl-3-methyl-1H-indazol-5-ylmethoxy)-phenyl]-hex-4-ynoic acid]
1 to 50 nM | CC#C[C@@H](CC(=O)O)c1ccc(OCc2cc(C)c3c(cnn3C3CCCC3)c2)cc1 [Example 171, (S)-3-[4-(1-cyclopentyl-7-methyl-1H-indazol-5-ylmethoxy)-phenyl]-hex-4-ynoic acid]
1 to 50 nM | CC#C[C@@H](CC(=O)O)c1ccc(OCc2ccc3cnn(C4CCCC4)c3c2)cc1 [Example 172, (S)-3-[4-(1-cyclopentyl-1H-indazol-6-ylmethoxy)-phenyl]-hex-4-ynoic acid]
1 to 50 nM | CC#C[C@@H](CC(=O)O)c1ccc(OCc2ccc3cnn(CC4CCCC4)c3c2)cc1 [Example 173, (S)-3-[4-(1-cyclopentylmethyl-1H-indazol-6-ylmethoxy)-phenyl]-hex-4-ynoic acid]
≥ 500 nM | CC#C[C@@H](CC(=O)O)c1ccc(OCc2ccc3c(cnn3CCS(C)(=O)=O)c2)cc1 [Example 174, (S)-3-{4-[1-(2-methanesulfonyl-ethyl)-1H-indazol-5-ylmethoxy]-phenyl}-hex-4-ynoic acid]
50 to 500 nM | CC#C[C@@H](CC(=O)O)c1ccc(OCc2ccc3c(cnn3CCOC)c2)cc1 [Example 175, (S)-3-{4-[1-(2-methoxy-ethyl)-1H-indazol-5-ylmethoxy]-phenyl}-hex-4-ynoic acid]
40 nM | CC#C[C@@H](CC(=O)O)c1ccc(OCc2ccc3c(cnn3CCCOC)c2)cc1 [Example 176, (S)-3-{4-[1-(3-methoxy-propyl)-1H-indazol-5-ylmethoxy]-phenyl}-hex-4-ynoic acid]
1 to 50 nM | CC#C[C@@H](CC(=O)O)c1ccc(OCc2ccc3cnn(CC4(C)COC4)c3c2)cc1 [Example 177, (S)-3-{4-[1-(3-methyl-oxetan-3-ylmethyl)-1H-indazol-6-ylmethoxy]-phenyl}-hex-4-ynoic acid]
1 to 50 nM | CC#C[C@@H](CC(=O)O)c1ccc(OCc2ccc3c(C)nn(CC(C)C)c3c2)cc1 [Example 178, (S)-3-[4-(1-isobutyl-3-methyl-1H-indazol-6-ylmethoxy)-phenyl]-hex-4-ynoic acid]
1 to 50 nM | CC#C[C@@H](CC(=O)O)c1ccc(OCc2ccc3c(C)n(CC(C)C)nc3c2)cc1 [Example 179, (S)-3-[4-(2-isobutyl-3-methyl-2H-indazol-6-ylmethoxy)-phenyl]-hex-4-ynoic acid]
1 to 50 nM | CC#C[C@@H](CC(=O)O)c1ccc(OCc2ccc3cnn(C(C)C)c3c2)cc1 [Example 180, (S)-3-[4-(1-isopropyl-1H-indazol-6-ylmethoxy)-phenyl]-hex-4-ynoic acid]
6 nM | CC#C[C@@H](CC(=O)O)c1ccc(OCc2ccc3onc(CC(C)C)c3c2)cc1 [Example 181, (S)-3-[4-(3-isobutyl-benzo[d]isoxazol-5-ylmethoxy)-phenyl]-hex-4-ynoic acid]
1 to 50 nM | CC#C[C@@H](CC(=O)O)c1ccc(OCc2ccc3cnn(CC(C)(C)C)c3c2)cc1 [Example 182, (S)-3-{4-[1-(2,2-dimethyl-propyl)-1H-indazol-6-ylmethoxy]-phenyl}-hex-4-ynoic acid]
